These results are taken from patent US11766404B2, “Bioavailable dithiocarbamate-metal complex particles, method of preparation and use thereof” (priority 2018, dated 2023).

The conditions of series [1]: cited from earlier work.
Series [2] concerns MDA-MB-231 breast cancer tumours subcutaneously xenografted into the SCID mice. Nature of the series: Growth of MDA-MB-231 tumours xenografted into SCID mice. The class given is in vivo. Conditions: CuET 1 mg/kg i.p., 5 days ON and 2 days OFF. On the procedure:
To test directly effect of CuET-albumin nanoparticles we used MDA-MB-231 and AMO1 models. MDA-MB-231 was injected (5*10^6 cells were transplanted s.c.) to grow tumours in SCID mice (Anlab, CZ). Similarly, the AMO-1 xenografts were expanded in SCID mice. Each group consisted of 10 animals, each bearing two tumours. CuET was formulated as nanoparticulate system in mouse serum albumin according to Example 12 or as the neat CuET powder (obtained from TOKYO CHEMICAL […] CO., LTD.) dissolved in olive oil which is a standard formulation for non-polar compounds applied intraperitoneally in the mice experiments to final concentration 1 mg/ml. Olive oil alone and mouse serum albumin solutions were used as the vehicle controls. All solutions were applied intraperitoneally in a schedule 5 days ON and 2 days OFF, the CuET was applied in the final dose 1 mg per kg of body weight. All aspects of the animal studies met the accepted criteria for the care and experimental use of laboratory animals.

Take `CCN(CC)C(=S)[S-].CCN(CC)C(=S)[S-].[Cu+2]` [neat CuET powder, bis(diethyldithiocarbamate)copper(II)]: the “solubility constant in water” value in series [1] is reported as “in the range of nanograms per litre”. For the same molecule, in series [2], the “effect on tumour growth” value is given as “Only the CuET-albumin nanoparticle shows significant effect”.
